Among the test systems are MDA-N; MDA-MB-435; PC-3; A498; XF498; SNB-78; RXF 631; LXFL 529.
Common to all, as to experiment: growth of human tumour cells (NCI), 48 h

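Assay format: 96-well plates, 48-hour exposure. GI50 = concentration required for 50% inhibition of growth.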 Activity calls are given as the source filed them. No stated cut-off is given here; in the data, active = GI50 up to about 1.1 µM and inactive = higher.

In the case of `N#Cc1c(NC(=S)NC(=O)c2ccccc2)nc2c(c1-c1ccccc1)CCC2`, the GI50 with MDA-N, with MDA-MB-435 and in the assay with PC-3 was > 100 µM (inactive) in each case.

With `Cc1cc(C)c2c(O)cc(-c3ccc(F)cc3)nc2n1`, the GI50 in the assay on A498 was 27.4 µM (inactive).

Regarding `CC(=O)OCC1=C(C(=O)O)C(c2ccc3c(c2)OCO3)c2cc3c(cc2O1)OCO3` (centres undefined), the GI50 in the assay with XF498, in the assay on SNB-78 and in the assay with RXF 631 was > 100 µM (inactive) in each case.

For `Cc1ccc(C2C(C(=O)C(C)(C)C)N2S(=O)(=O)c2ccc(C)cc2)cc1` (centres undefined), the GI50 in the assay with MDA-N is 19.1 µM (inactive); with MDA-MB-435, 20.9 µM (inactive); in the assay on PC-3, 29.7 µM (inactive).

Regarding `Cc1ccc(C(C)(C)C[P+](C)(c2ccccc2)c2ccccc2)cc1`, the GI50 is 2.88 µM (inactive) in the assay with XF498, 34.4 µM (inactive) in the assay with A498 and 14.7 µM (inactive) in the assay on SNB-78.

As for `COc1ccc(C[C@H](N)C(=O)N2C[C@@H](CO)C[C@@H](n3ccc(=O)[nH]c3=O)C2)cc1`, the GI50 with LXFL 529 was > 100 µM (inactive).
